Measurements published in US20070117770A1, “Human ribosomal DNA (rDNA) and ribosomal RNA (rRNA) nucleic acids and uses thereof” (Cylene Pharmaceuticals, Inc., priority 2005, published 2007).
*1 amine or outer side, *2 acyl side, *3 side chain or, on linkers, in order; H or OH if unused. Where a SMILES comes first, the peptide text is derived from it. Bridges are numbered along the chain shown (N, C = ends). Roman numbers before positions name the chains, in order. [ ]: non-standard residue; d: D form. Actinocin(9to1) = Cc1c2oc3c(C)ccc(C(=O)[*:1])c3nc-2c(C(=O)[*:2])c(N)c1=O; NMeV = CN[C@H](C(=O)O)C(C)C; Sar = CNCC(=O)O

Columns and labels:
[1] = biological target: T1, nucleolin/nucleic acid ligand (Homo sapiens, UniProt P19338); assay: EMSA, interference with nucleolin/nucleic acid ligand interactions (ligands derived from human ribosomal DNA); assay type: binding
T1 construct: without the N-terminal acidic stretches domain
T1 sequence (P19338 284-710 limits assumed): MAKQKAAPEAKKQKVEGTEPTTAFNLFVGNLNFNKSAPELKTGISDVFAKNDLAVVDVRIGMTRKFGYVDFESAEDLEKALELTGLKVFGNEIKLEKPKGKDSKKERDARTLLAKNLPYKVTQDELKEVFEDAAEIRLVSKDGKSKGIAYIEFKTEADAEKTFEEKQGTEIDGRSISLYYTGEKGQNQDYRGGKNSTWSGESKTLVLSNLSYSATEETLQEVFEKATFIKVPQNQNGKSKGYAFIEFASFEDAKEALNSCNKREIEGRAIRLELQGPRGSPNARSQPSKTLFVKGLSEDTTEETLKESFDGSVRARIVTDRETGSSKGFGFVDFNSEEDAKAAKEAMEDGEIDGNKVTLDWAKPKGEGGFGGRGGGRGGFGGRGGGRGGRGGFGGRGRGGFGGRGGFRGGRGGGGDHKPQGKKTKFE
Description: The following assays assessed effects of compounds on interactions between nucleolin and nucleic acid ligands capable of forming quadruplex (QP) and hairpin (HP) secondary structures. Nucleic acid ligands tested were a cMyc QP DNA having nucleotide sequence 5′-[…]-3′ (SEQ ID NO: 176) and a HP pre-rRNA region to which nucleolin binds, having the sequence 5′-[…]-3′ (SEQ ID NO: 177). In the assays, recombinant nucleolin (˜250 nM), which was fused to maltose binding protein and had the sequence under accession number NM_005381 without the N-terminal acidic stretches domain, was incubated with each of the two ^32P-labeled nucleic acid ligands (10 or 250 nM). Nucleolin and the nucleic acid ligand were incubated in the presence or absence of a test compound of Formula A-1, B-1, C-6 or C-7 in an incubation buffer (12.5 mM Tris, pH 7.6, 60 mM KCl, 1 mM MgCl2, 0.1 mM EDTA, 1 mM DTT, 5% glycerol, 0.1 mg/ml BSA) for 30 minutes at room temperature. Structures for A-1 and B-1 are shown above and structures for C-6 and C-7 are shown hereafter: [drawing 17] The resulting complexes were separated on a 6% DNA retardation gel using 0.5× TBE with 20 mM KCl as a running buffer (i.e., electrophoresis mobility shift assay (EMSA)).
The assay also was conducted using nucleic acid ligands derived from human ribosomal DNA. Sequences of these nucleic acids are shown in the preceding example. […]

[2] = tested on: 28S and 18S rRNA (total RNA from HCT116 cells); assay: Competition for rRNA binding with compound A-1 (agarose gel electrophoresis); set-up: species or system human; details: 10 uM compound A-1; increasing amount of competitor (Actinomycin D 10, 100, 200 uM; pUC18 0.25-4 ug)
Description: Compounds that bound to the 28S rRNA were subjected to competition for rRNA binding with Actinomycin D, Se2SAP (FIG. 3A of US20040110820 published on Jun. 10, 2004) and double-stranded DNA (dsDNA) in confirmatory studies. In such assays, 1 ug of total RNA from HCT116 cells was incubated with 10 uM compound A-1 in a volume of 10 uL in the absence/ presence of (a) increasing amount of Actinomycin D (10, 100 and 200 uM) for 15 min at room temperature, (b) increasing amount of Se2SAP (see figure) for 30 min at room temperature, or (c) increasing amount of pUC18 (0.25, 0.5, 1, 2 and 4 ug) for 30 min at room temperature, followed by agarose gel electrophoresis.

Cc1c2oc3c(C)ccc(C(=O)N[C@@H]4C(=O)N[C@H](C(C)C)C(=O)N5CCC[C@H]5C(=O)N(C)CC(=O)N(C)[C@@H](C(C)C)C(=O)O[C@@H]4C)c3nc-2c(C(=O)N[C@@H]2C(=O)N[C@H](C(C)C)C(=O)N3CCC[C@H]3C(=O)N(C)CC(=O)N(C)[C@@H](C(C)C)C(=O)O[C@@H]2C)c(N)c1=O [Actinomycin D, reference compound] (I: T[dV]P[Sar][NMeV] / II: T[dV]P[Sar][NMeV]; ester I:1-I:C, II:1-II:C; linker I:N-II:N via Actinocin(9to1))
interference with nucleolin/nucleic acid ligand interactions [1]: but not Actinomycin D, interfered with nucleolin/nucleic acid ligand interactions | competition with compound A-1 for rRNA binding [2]: failed to compete with compound A-1 for rRNA
